The nature of the data set: gradient 5% acetonitrile 3 min, to 50% in 2 min, to 85% in 15 min, held 3 min, 100 µL/min. The following applies: column: Zorbax Extend-C18 2.1 x 50 mm; eluents: water / acetonitrile, 0.1% formic acid. Put shortly: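 Pure standards were run in mixtures of ~100 molecules by HPLC coupled to a quadrupole time-of-flight mass spectrometer. The column was a Zorbax Extend-C18 (2.1 × 50 mm, 1.8 μm) at 100 μL/min, with water and acetonitrile each containing 0.1% formic acid, in positive and negative ionization mode. Dead and dwell volumes were 40 μL and 900 μL. Retention time was taken from computationally picked adduct peaks, each manually inspected, with data collected over 3 months.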
`CC1=C(c2ccc(Cl)cc2)S(=O)(=O)N=C1N1CCCN(C(=O)C(C)C)CC1`: the RP-LC retention time came to 822 s.
As for `O=C(NCc1ccccc1F)c1ccc2c(c1)CN(CC1=Cc3ccccc3OC1)CCO2`, the figure is 755 s; as for `COCCn1cc(CCNC(=O)Nc2cc(C)ccc2C)c2cccnc21`, 752 s.
Regarding `O=C(CN1CC=C(c2cnn(-c3ccccc3)c2)CC1)NCC1CCCO1` (centres undefined), the RP-LC retention time came to 612 s.
Next, `O=C(NCc1ccccn1)c1csc(Nc2ccc(OC(F)(F)F)cc2)n1`: 674 s; `CC1(C)CS(=O)(=O)N(c2ccc(C(=O)N3CCN(c4ccccn4)CC3)cc2)C1=O`: 608 s.
Next, `Cc1csc(-c2cc(S(=O)(=O)NC3CCCC3)c(C)n2C)n1`: 970 s; `COc1ccc(NC(=O)C2CCN(S(=O)(=O)c3cc(C(=O)N4CCCC4)n(C)c3)CC2)cc1`: 729 s.
Turning to `Cn1c(N2CCC(C(=O)N3CCN(Cc4ccc5c(c4)OCO5)CC3)CC2)cc(=O)n(C)c1=O`, the RP-LC retention time was determined as 579 s.
`CCC(C)NS(=O)(=O)c1cccc(-c2nc(-c3ccccc3)no2)c1` (centres undefined) returned an RP-LC retention time of 786 s.
As for `CCOc1ccc(N2CC(c3nc(-c4ccccc4C)no3)CC2=O)cc1` (centres undefined), the figure is 931 s; as for `COc1ccc(CNC(=O)C2CCCN(c3ncnc4c3oc3ccccc34)C2)c(OC)c1` (centres undefined), 754 s.
Next, `CCc1cc(C2CCCN2C(=O)Nc2cccc(Cl)c2)on1` (centres undefined): 924 s; `CC(C)C(=O)Nc1cc(-c2ccccc2)nn(C(C)C(=O)Nc2ccccc2Cl)c1=O` (centres undefined): 1170 s; `Cn1c(=O)c2cc(C(=O)N3CCN(c4ccc(Cl)cc4)CC3)sc2n(C)c1=O`: 862 s.
As for `Cc1ccc2nc(NC(C)(C)CO)nc(-c3ccccc3)c2c1`, the figure is 644 s; as for `CN(C)CCNC(=O)c1ncn2c1C(=O)N(C1CC1)C(C)(C(=O)NCc1ccc(F)cc1)C2` (centres undefined), 600 s.
Compound `COC(=O)C1=CN(c2ccc(F)cc2)c2ccccc2S1(=O)=O` showed an RP-LC retention time of 790 s.
In turn, `Cc1ccccc1CNC(=O)C1(C)Oc2cccnc2NC1=O` (centres undefined) gave an RP-LC retention time of 702 s.
As for `COc1ccccc1CC(=O)Nc1cccn2c(C)nnc12`, the figure is 678 s.
As to `CCOC(=O)c1noc2nc(C)nc(NCc3ccc(OC)cc3)c12`, the RP-LC retention time turned out to be 1010 s.
As for `Cc1cccc(N2CCN(C(=O)C3CCN(S(=O)(=O)c4cccc5nsnc45)CC3)CC2)c1C`, the figure is 1050 s; as for `CCCc1noc(CN2N=C(C(=O)N3CCC(C)CC3)S(=O)(=O)c3ccc(C)cc32)n1`, 1010 s; as for `Cc1noc(-c2ccnc(-n3cnc(C(=O)NC(C)C)c3)c2)n1`, 712 s.
`CC1=C(c2ccccc2)S(=O)(=O)N=C1N1CCCN(C(=O)NCC(C)C)CC1` came in with an RP-LC retention time of 768 s.
Next, `c1cc(-c2nc(CC3CCCNC3)no2)ccn1` (centres undefined): 552 s; `Cc1occc1C(=O)N1CC(F)(F)C[C@H]1c1nc(C2CC2)no1`: 726 s.
As for `Cc1cccc(-n2c(=O)c3sccc3n(Cc3nc(-c4ccc(C(C)(C)C)cc4)no3)c2=O)c1`, the RP-LC retention time is 1260 s.
`Cc1ccc(N2CCN(C(=O)CN3CCN(Cc4cccc(Cl)c4)C3=O)CC2)cc1` returned an RP-LC retention time of 905 s.
As to `CCOC(=O)CNc1ncnc2nc[nH]c12`, the RP-LC retention time worked out at 513 s.
Next, `Cc1ccc(N2CC(C(=O)N3CCC(NS(=O)(=O)c4ccc(C)cc4)CC3)CC2=O)cc1` (centres undefined): 826 s.
For the compound `Cc1ccc(NC(=O)N2CCC3(CC2)NC(=O)c2ccccc2O3)cc1C`, the RP-LC retention time turned out to be 812 s.
Next, `Cc1ccc(CNC(=O)c2ccc3nn(CC(=O)NCCC4=CCCCC4)c(=O)n3c2)cc1`: 857 s; `O=C(C(c1ccccc1)n1cccc1)N1CCCC1` (centres undefined): 782 s.
Consider `Fc1ccc(-c2nc3ncccn3c2NCc2ccc(Cl)cc2)cc1`, for which the RP-LC retention time was 782 s.
As for `CCn1nc(C)c2ccn(CC(=O)NCc3cc(F)cc(F)c3)c(=O)c21`, the figure is 757 s; as for `COc1cc(C(=O)Nc2ccc(-c3cn4cccnc4n3)cc2)cc(OC)c1OC`, 634 s.
Take `COc1ccc(CNC(=O)C2CCN(C(=O)c3nn(C)c4c3CN(C(=O)C(C)C)CC4)CC2)cc1`: the RP-LC retention time was 662 s.
In turn, `CCCN1CCN(C(=O)Cn2c3ccccc3c3cnn(C)c(=O)c32)CC1` gave an RP-LC retention time of 590 s.
Next, `Cc1noc(C2CCCCN2Cc2nc(-c3cccnc3)no2)n1` (centres undefined): 656 s; `Cc1nc(-c2cn(C(C)C)c3ncccc23)sc1C(=O)NCc1ccco1`: 912 s; `CCOc1ccc(Nc2ncccc2S(N)(=O)=O)cc1`: 773 s.
For the compound `COC(=O)c1ccc(NC(=O)C2=Cc3cc(OC)ccc3OC=C2)cc1`, the RP-LC retention time turned out to be 1040 s.
In the case of `O=C(c1ccc(F)cc1F)N1CCN(c2cc(-c3ccc(Cl)cc3)[nH]n2)CC1`, the RP-LC retention time stood at 894 s.
For `CC1(C)NC(=O)N(CCC(=O)N2CCCn3nc(-c4ccc(F)cc4)cc3C2)C1=O`, the RP-LC retention time was 683 s.
Next, `CCN1CCN(c2cc(-c3nc(-c4ccc(Cl)cc4)no3)c3ccccc3n2)CC1`: 911 s; `O=C(NC1CCCC1)C1CCCN(S(=O)(=O)Cc2ccc(Cl)cc2)C1` (centres undefined): 910 s; `O=C(NCCCN1CCCCC1)C1CCCN(c2ncc(-c3cccc(F)c3)cn2)C1` (centres undefined): 684 s.
Compound `CCc1nnc(-c2cccnc2N2CCN(C(=O)Nc3cc(Cl)cc(Cl)c3)CC2)o1` had an RP-LC retention time of 968 s.
`O=C(c1ncccn1)N1C[C@@H](COCC2CC2)[C@H](c2ccncc2)C1` registered an RP-LC retention time of 654 s.
Next, `COc1ccc(C2CC(=O)c3c([nH]c(C(=O)OC4CCCC4C)c3C)C2)cc1OC` (centres undefined): 1050 s; `O=C(NC1CCN(c2cc(-c3ccccc3)[nH]n2)C1)c1ccsc1` (centres undefined): 660 s.
Compound `Cn1nc(-c2nnc(-c3ccccc3)o2)c2c1CCN(S(=O)(=O)c1ccc(Cl)s1)C2` showed an RP-LC retention time of 1010 s.
As for `CC(C)NC(=O)C1CC(=O)N(CCc2c[nH]c3ccc(F)cc23)C1` (centres undefined), the figure is 691 s.
With `CC(C(=O)N1CCCC1)C1CCN(C(=O)c2ccc3nc(-c4ccccc4)oc3c2)CC1` (centres undefined), the RP-LC retention time was 818 s.
With `CCN1CCC2(CC1)N=C(c1ccccc1)CC(c1cc(Cl)ccc1O)N2` (centres undefined), the RP-LC retention time was determined as 621 s.
As for `CCn1c(=O)c(NCCc2ccc(OC)c(OC)c2)nc2ccncc21`, the RP-LC retention time is 618 s.
Next, `Fc1cc(F)cc(Cn2cccc2-c2nc(-c3ccncc3)no2)c1`: 1110 s.
Next, `O=C(Nc1ccccc1F)N1CCC(N2CCN(Cc3ccc(F)cc3)C2=O)CC1`: 811 s; `Cn1c(N2CCN(C(=O)c3ccccc3Cl)CC2)cc(=O)n(C)c1=O`: 622 s.
With `COC[C@@H]1CN(S(=O)(=O)Cc2ccccc2)C[C@H]1c1ccncc1`, the RP-LC retention time is 637 s.
Next, `Cc1cccc(N2CC(C(=O)NC(C)C)CC2=O)c1` (centres undefined): 678 s.
Take `CCOc1ccc(NC(=O)Nc2nccn(-c3ccc(C(C)C)cc3)c2=O)cc1`: the RP-LC retention time came to 1160 s.
In turn, `Cn1c(=O)c(-c2noc(C(=O)N3CCN(c4ccccn4)CC3)n2)nn(-c2ccccc2)c1=O` came in with an RP-LC retention time of 637 s.
As for `CSc1ccc(-c2noc(Cc3nnc(-c4ccc(Cl)cc4)o3)n2)cc1`, the figure is 1120 s; as for `CCCC(=O)N1CC(c2nc(-c3ccc(F)cc3)no2)C2(CCOCC2)C1` (centres undefined), 872 s; as for `COc1cccc(-c2noc(Cn3ccn(-c4c(C)cccc4C)c(=O)c3=O)n2)c1`, 872 s.
As for `COc1ccc(C2C=C(c3ccc4c(c3)OCO4)Oc3c2c(=O)oc2ccccc32)cc1OC` (centres undefined), the figure is 1090 s.
Next, `O=C(Nc1ccc(Br)cc1F)N1CCN(Cc2ccc3nccnc3c2)CC1`: 627 s; `CCCOc1ccc(CN2C[C@@H](CO)[C@H](N(C)C)C2)cc1OC`: 551 s.
Consider `CCCCOc1ccc(Nc2cc(Cl)ccc2C(=O)O)cn1`, for which the RP-LC retention time came to 1260 s.
`CCNS(=O)(=O)c1cccnc1Nc1ccc(Cl)c(F)c1` came in with an RP-LC retention time of 1090 s.
On to `Cc1ccc(CN(C(=O)C(C)Oc2cccc(C)c2C)C2CCS(=O)(=O)C2)o1` (centres undefined), for which the RP-LC retention time is 977 s.
As for `CCS(=O)(=O)c1nc2ccc(NS(=O)(=O)c3ccc(C4CCCCC4)cc3)cc2s1`, the figure is 1120 s; as for `O=C(C1CCN(S(=O)(=O)c2ccc(-c3noc(C4CC4)n3)cc2)CC1)N1CCCCCC1`, 1030 s.
Next, `COc1ccccc1NC(=O)C1CCN(c2cc(N3CCCCC3)ncn2)CC1`: 700 s; `CCc1sc(NC(=O)c2cc3c([nH]c2=O)CCCC3=O)nc1-c1ccc(Cc2ccccc2)cc1`: 1140 s.
For the compound `CN(C)c1nc(Nc2ccc(F)cc2)c2cnn(-c3ccccc3)c2n1`, the RP-LC retention time was 1310 s.
Consider `Cc1noc(C)c1CNC(=O)c1ccc(OC(F)(F)F)cc1`, for which the RP-LC retention time turned out to be 825 s.

(Values after the METLIN SMRT retention time set (Domingo-Almenara et al. 2019).)
